The values that follow come from patent publication US12090220B2, “Efficient sunscreen compositions with diethylamino hydroxybenzoyl hexyl benzoate, butyl methoxydibenzoylmethane and organic particulate UV filter” (BASF SE, priority 2019, dated 2024).

Where a name gives a salt, the structure may show the parent alone.

Experiment in one data set: not given
To be noted: general description of the UV filter; cited from earlier work.
For `COc1ccc(C(=O)CC(=O)c2ccc(C(C)(C)C)cc2)cc1` [BMDBM, 1-(4-(1,1-dimethylethyl)phenyl)-3-(4-methoxyphenyl)propane-1,3-dione], the absorption maximum is 357 nm.

As to `CCCCCCOC(=O)c1ccccc1C(=O)c1ccc(N(CC)CC)cc1O` [DHHB, hexyl 2-[4-(diethylamino)-2-hydroxybenzoyl]benzoate], the absorption maximum was 354 nm.

On to `CCCCC(CC)COC(=O)/C=C/c1ccc(OC)cc1` (centres unmarked) [ethylhexyl methoxy cinnamate, 2-Ethylhexyl-(2E)-3-(4-methoxyphenyl)acrylate], for which the absorption maximum is given as 310 nm.

With `c1ccc(-c2ccc(-c3nc(-c4ccc(-c5ccccc5)cc4)nc(-c4ccc(-c5ccccc5)cc4)n3)cc2)cc1` [tris-biphenyl triazine, 2,4,6-Tris(biphenyl-4-yl)-1,3,5-triazine], the absorption maximum is 310 nm.

A further data set in a line: Measurement of interfacial tension (polarity index) of emollients. Type of data set: physicochemical. To be noted: interfacial tension emollient/water, Tensimat Densimat TD2000. An excerpt:
The term “polarity index” refers to non-polar or polar oils. Non-polar oils are mainly based on hydrocarbons and lack an electronegative element, such as oxygen. In contrast, polar oils contain heteroatoms that differ in electronegativity, which results in a dipole moment. However, such oils are still insoluble in water, i.e. hydrophob. The polarity index can be determined by measuring the interfacial tension between the respective oil and water.
Interfacial tension of the respective emollients as listed below was measured using a Tensimat Densimat TD2000.
The molecule `CCCCOC(=O)CCCCC(=O)OCCCC` [dibutyl adipate] had a polarity index of 14 mN/m.

The molecule `CC(C)OC(=O)CCCCC(=O)OC(C)C` [diisopropyl adipate] displayed a polarity index of 12 mN/m.

The molecule `CC(C)OC(=O)CCCCCCCCC(=O)OC(C)C` [diisopropyl sebacate] had a polarity index of 19 mN/m.

The molecule `CCCCCCCCCCC(CO)CCCCCCCC` (centres unmarked) [octyldodecanol] had a polarity index of 25 mN/m.

With `O=C(OCCc1ccccc1)c1ccccc1` [phenethyl benzoate], the polarity index is given as 19 mN/m.

On to `CCCCOC(=O)CC(O)(CC(=O)OCCCC)C(=O)OCCCC` [tributyl citrate], for which the polarity index was found to be 10 mN/m.

As to `CCOC(=O)CC(O)(CC(=O)OCC)C(=O)OCC` [triethyl citrate], the polarity index is on record as 7 mN/m.
